Data reported in US10322131B2, “Hydroxyacid derivatives, a process for their preparation and pharmaceutical compositions containing them” (LES LABORATOIRES SERVIER, priority 2015, dated 2019).

Columns and labels:
Mcl-1 protein = Mcl-1 protein (Homo sapiens, UniProt Q07820); test: Inhibition of Mcl-1 by the fluorescence polarisation technique; type: binding; conditions: fluorescence polarisation test; Fluorescein labelled ligand 1 nM, Mcl-1 protein 5 nM, ~2 hours at r.t.; read-out: IC50 (M) Mcl-1 FP
Mcl-1 protein, sequence (Q07820 whole entry): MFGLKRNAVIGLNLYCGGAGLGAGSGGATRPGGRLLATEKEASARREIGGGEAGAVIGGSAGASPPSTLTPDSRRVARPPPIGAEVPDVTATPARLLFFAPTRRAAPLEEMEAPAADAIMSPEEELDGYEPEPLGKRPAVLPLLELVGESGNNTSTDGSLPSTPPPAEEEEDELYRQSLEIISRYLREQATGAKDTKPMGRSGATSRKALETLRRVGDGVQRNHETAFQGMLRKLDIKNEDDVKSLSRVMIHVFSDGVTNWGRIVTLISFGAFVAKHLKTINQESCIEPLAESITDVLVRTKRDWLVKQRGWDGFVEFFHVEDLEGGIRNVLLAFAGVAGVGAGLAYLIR
Method: The relative binding potency of each compound was determined via Fluorescence Polarisation (FP). The method utilised a Fluorescein labelled ligand (Fluorescein-βAla-Ahx-A-REIGAQLRRMADDLNAQY-OH; mw 2,765) which binds to the Mcl-1 protein (such that Mcl-1 corresponds to the UniProtKB® primary accession number: Q07820) leading to an increased anisotropy measured in milli-polarisation (mP) units using a reader. The addition of a compound which binds competitively to the same site as the ligand will result in a greater proportion of unbound ligand in the system indicated by a decrease in mP units.
An 11 point serial dilution of each compound was prepared in DMSO and 2 μl transferred into flat bottomed, low binding, 384-well plate (final DMSO concentration 5%). 38 μl of buffer (10 mM 4-(2-hydroxyethyl)-1-piperazineethanesulfonic acid [HEPES], 150 mM NaCl, 0.05% Tween 20, pH 7.4), containing the Fluorescein labelled ligand (final concentration 1 nM) and Mcl-1 protein (final concentration 5 nM) was then added.
Assay plates were incubated ˜2 hours at r.t. before FP was measured on a Biomek Synergy2 reader (Ex. 528 nm, Em. 640 nm, Cut off 510 nm) and mP units calculated. The binding of increasing doses of test compound was expressed as a percentage reduction in mP compared to a window established between ‘5% DMSO only’ and ‘100% inhibition’ controls. 11-point dose response curves were plotted with XL-Fit software using a 4-Parameter Logistic Model (Sigmoidal Dose-Response Model) and the inhibitory concentrations that gave a 50% reduction in mP (IC50) were determined.

H929 cells = test: In vitro cytotoxicity (MTT) on H929 multiple myeloma tumour line; type: cell-based; conditions: Microculture Tetrazolium Assay
Method: The cytotoxicity studies were carried out on the H929 multiple myeloma tumour line.
The cells are distributed onto microplates and exposed to the test compounds for 48 hours.
The cell viability is then quantified by a colorimetric assay, the Microculture Tetrazolium Assay (Cancer Res., 1987, 47, 939-942).

[1] = Homo sapiens, NCI-H929, exposed 48 hours

## Cc1c(-c2c(-c3ccc(F)cc3)sc3ncnc(OC(Cc4ccccc4OCc4ccnc(-c5ccc(O)cc5)n4)C(=O)O)c23)ccc(OCCN2CCN(C)CC2)c1Cl [Example 2, (2R)-2-{[(5Sa)-5-{3-chloro-2-methyl-4-[2-(4-methylpiperazin-1-yl)ethoxy]phenyl}-6-(4-fluorophenyl)thieno[2,3-d]pyrimidin-4-yl]oxy}-3-(2-{[2-(4-hydroxyphenyl)pyrimidin-4-yl]methoxy}phenyl)propanoic acid]
Mcl-1 protein
  IC50: 1.32e-08 M
H929 cells; [1]
  IC50: 15.9 nM

## Cc1c(-c2c(-c3ccc(F)cc3)sc3ncnc(OC(Cc4ccccc4OCc4ccnc(-c5cccc(CO)c5)n4)C(=O)O)c23)ccc(OCCN2CCN(C)CC2)c1Cl [Example 3, (2R)-2-{[(5Sa)-5-{3-chloro-2-methyl-4-[2-(4-methylpiperazin-1-yl)ethoxy]phenyl}-6-(4-fluorophenyl)thieno[2,3-d]pyrimidin-4-yl]oxy}-3-[2-({2-[3-(hydroxymethyl)phenyl]pyrimidin-4-yl}methoxy)phenyl]propanoic acid]
Mcl-1 protein
  IC50: 4.05e-09 M
H929 cells; [1]
  IC50: 4.08 nM

## Cc1c(-c2c(-c3ccc(F)cc3)sc3ncnc(OC(Cc4ccccc4OCc4ccnc(-c5ccc(CO)cc5)n4)C(=O)O)c23)ccc(OCCN2CCN(C)CC2)c1Cl [Example 4, (2R)-2-{[(5Sa)-5-{3-chloro-2-methyl-4-[2-(4-methylpiperazin-1-yl)ethoxy]phenyl}-6-(4-fluorophenyl)thieno[2,3-d]pyrimidin-4-yl]oxy}-3-[2-({2-[4-hydroxymethyl)phenyl]pyrimidin-4-yl}methoxy)phenyl]propanoic acid]
Mcl-1 protein
  IC50: 4.9e-09 M
H929 cells; [1]
  IC50: 3.64 nM

## Cc1c(-c2c(-c3ccc(F)cc3)sc3ncnc(OC(Cc4ccccc4OCc4ccnc(-c5ccccc5OCC5COC(C)(C)O5)n4)C(=O)O)c23)ccc(OCCN2CCN(C)CC2)c1Cl [Example 5, (2R)-2-{[(5Sa)-5-{3-chloro-2-methyl-4-[2-(4-methylpiperazin-1-yl)ethoxyl]phenyl}-6-(4-fluorophenyl)thieno[2,3-d]pyrimidin-4-yl]oxy}-3-{2-[(2-{2-[(2,2-dimethyl-1,3-dioxolan-4-yl)methoxyl]phenyl}pyrimidin-4-yl)methoxy]phenyl}propanoic acid]
Mcl-1 protein
  IC50: 3.7e-09 M
H929 cells; [1]
  IC50: 1.65 nM

## COCCOCCOc1ccccc1-c1nccc(COc2ccccc2CC(Oc2ncnc3sc(-c4ccc(F)cc4)c(-c4ccc(OCCN5CCN(C)CC5)c(Cl)c4C)c23)C(=O)O)n1 [Example 6, (2R)-2-{[(5Sa)-5-{3-chloro-2-methyl-4-[2-(4-methylpiperazin-1-yl)ethoxy]phenyl}-6-(4-fluoropnhenyl)thieno[2,3-d]pyrimidin-4-yl]oxy}-3-{2-[(2-{2-[2-(2-methoxyethoxy)ethoxy]phenyl}pyrimidin-4-yl)methoxy]phenyl}propanoic acid]
Mcl-1 protein
  IC50: 1.57e-08 M
H929 cells; [1]
  IC50: 3.25 nM

## COCCOCCOCCOc1ccccc1-c1nccc(COc2ccccc2CC(Oc2ncnc3sc(-c4ccc(F)cc4)c(-c4ccc(OCCN5CCN(C)CC5)c(Cl)c4C)c23)C(=O)O)n1 [Example 7, (2R)-2-{[(5Sa)-5-{3-chloro-2-methyl-4-[2-(4-methylpiperazin-1-yl)ethoxy]phenyl}-6-(4-flurophenyl)thieno[2,3-d]pyrimidin-4-yl]oxy}-3-(2-{[2-(2-{2-[2-(2-methoxyethoxy)ethoxy]ethoxy}phenyl)pyrimidin-4-yl]methoxy}phenyl)propanoic acid]
Mcl-1 protein
  IC50: 3.75e-09 M
H929 cells; exposed 48 hours
  IC50: 4.45 nM

## COCc1ccccc1-c1nccc(COc2ccccc2C[C@@H](Oc2ncnc3sc(-c4ccc(F)cc4)c(-c4ccc(OCCN5CCN(C)CC5)c(Cl)c4C)c23)C(=O)O)n1 [Example 8, (2R)-2-{[(5Sa)-5-{3-chloro-2-methyl-4-[2-(4-methylpiperazin-1-yl)ethoxy]phenyl}-6-(4-flurophenyl)thieno[2,3-d]pyrimidin-4-yl]oxy}-3-[2-({2-[2-(methoxymethyl)phenyl]pyrimidin-4-yl}methoxy)phenyl]propanoic acid]
Mcl-1 protein
  IC50: 7.35e-09 M
H929 cells; exposed 48 hours
  IC50: 2.07 nM

## COCCOCc1ccccc1-c1nccc(COc2ccccc2CC(Oc2ncnc3sc(-c4ccc(F)cc4)c(-c4ccc(OCCN5CCN(C)CC5)c(Cl)c4C)c23)C(=O)O)n1 [Example 9, (2R)-2-{[(5Sa)-5-{3-chloro-2-methyl-4-[2-(4-methylpiperazin-1-yl)ethoxy]phenyl}-6-(4-fluorophenyl)thieno[2,3-d]pyrimidin-4-yl]oxy}-3-{2-[(2-{2-[(2-methoxyethoxy)methyl]phenyl}pyrimidin-4-yl)methoxy]phenyl}propanoic acid]
Mcl-1 protein
  IC50: 8.15e-09 M
H929 cells; [1]
  IC50: 1.4 nM

## Cc1c(-c2c(-c3ccc(F)cc3)sc3ncnc(OC(Cc4ccccc4OCc4ccnc(-c5ccccc5COCCO)n4)C(=O)O)c23)ccc(OCCN2CCN(C)CC2)c1Cl [Example 10, (2R)-2-{[(5Sa)-5-{3-chloro-2-methyl-4-[2-(4-methylpiperazin-1-yl)ethoxy]phenyl}-6-(4-fluorophenyl)thieno[2,3-d]pyrimidin-4-yl]oxy}-3-{2-[(2-{2-[(2-hydroxyethoxy)methyl]phenyl}pyrimidin-4-yl)methoxy]phenyl}propanoic acid]
Mcl-1 protein
  IC50: 1.09e-08 M
H929 cells; [1]
  IC50: 2.79 nM

## Cc1c(-c2c(-c3ccc(F)cc3)sc3ncnc(OC(Cc4ccccc4OCc4ccnc(-c5ccccc5COCC5COC(C)(C)O5)n4)C(=O)O)c23)ccc(OCCN2CCN(C)CC2)c1Cl [Example 11, (2R)-2-{[(5Sa)-5-{3-chloro-2-methyl-4-[2-(4-methylpiperazin-1-yl)ethoxy]phenyl}-6-(4-fluorophenyl)thieno[2,3-d]pyrimidin-4-yl]oxy}-3-(2-{[2-(2-{[(2,2-dimethyl-1,3-dioxolan-4-yl)methoxy]methyl}phenyl)pyrimidin-4-yl]methoxy}phenyl)propanoic acid]
Mcl-1 protein
  IC50: 4.05e-09 M
H929 cells; [1]
  IC50: 1.99 nM

## Cc1c(-c2c(-c3ccc(F)cc3)sc3ncnc(OC(Cc4ccccc4OCc4ccnc(-c5cccc(COCCO)c5)n4)C(=O)O)c23)ccc(OCCN2CCN(C)CC2)c1Cl [Example 12, (2R)-2-{[(5Sa)-5-{3-chloro-2-methyl-4-[2-(4-methylpiperazin-1-yl(ethoxy]phenyl}-6-(4-fluorophenyl)thieno[2,3-d]pyrimidin-4-yl]oxy}-3-{2-[(2-{3-[(2-hydroxyethoxy)methyl]phenyl}pyrimidin-4-yl)methoxy]phenyl}propanoic acid]
Mcl-1 protein
  IC50: 4.25e-09 M
H929 cells; [1]
  IC50: 3.82 nM

## COCC(COC)Oc1cccc(-c2nccc(COc3ccccc3CC(Oc3ncnc4sc(-c5ccc(F)cc5)c(-c5ccc(OCCN6CCN(C)CC6)c(Cl)c5C)c34)C(=O)O)n2)c1 [Example 13, (2R)-2-{[(5Sa)-5-{3-chloro-2-methyl-4-[2-(4-methylpiperazin-1-yl)ethoxy]phenyl}-6-(4fluorophenyl)thieno[2,3-d]pyrimidin-4-yl]oxy}-3-{2-[(2-{3-[(1,3-dimethoxypropan-2-yl)oxy]phenyl}pyrimidin-4-yl)methoxy]phenyl}propanoic acid]
Mcl-1 protein
  IC50: 5.1e-09 M
H929 cells; [1]
  IC50: 3.59 nM

## COCC(COC)Oc1ccc(-c2nccc(COc3ccccc3CC(Oc3ncnc4sc(-c5ccc(F)cc5)c(-c5ccc(OCCN6CCN(C)CC6)c(Cl)c5C)c34)C(=O)O)n2)cc1 [Example 14, (2R)-2-{[(5Sa)-5-{3-chloro-2-methyl-4-[2-(4-methylpiperazin-1-yl)ethoxy]phenyl}-6-(4-fluorophenyl)thieno[2,3-d]pyrimidin-4-yl]oxy}-3-{(2-[(2-{4-[(1,3-dimethoxypropan-2-yl)oxy]phenyl}pyrimidin-4-yl)methoxy]phenyl}propanoic acid]
Mcl-1 protein
  IC50: 6.15e-09 M
H929 cells; [1]
  IC50: 3.37 nM
